Series [1] can be described thus: Physical state of alkanediols and alkanediol mixtures at RTP. To be noted: at RTP (room temperature, normal pressure); FIG. 3 and FIG. 4. The class given is physicochemical. The text has this:
The term “liquid alkanediol” within the context of the present invention means an alkanediol component which is liquid at room or ambient temperature and under normal pressure, i.e. standard RTP conditions.
FIG. 3 is a photograph showing from left to right samples of the liquid 1,2-pentanediol, 1,2-hexanediol, 1,2-heptanediol, 2,3-heptanediol, 2,3-octanediol and 2,3-undecanediol in comparison to the solid 1,2-octanediol, 1,2-undecanediol, 1,2-nonanediol and the liquid 2,3-nonanediol. The first six alkanediols are liquid at RTP, whereas 1,2-octanediol, 1,2-nonanediol and 1,2-undecanediol are solid substances at RTP; 2,3-nonanediol is also liquid at RTP.
FIG. 4 is a representative photograph of samples of mixtures of 1,2-alkanediols with the respective 2,3-alkanediol. All mixtures are liquid. They are shown in the following order: 1,2-heptanediol (95%)+2,3-heptanediol (5%), 1,2-octanediol (95%)+2,3-octanediol (5%), and 1,2-nonanediol (95%)+2,3-nonanediol (5%).

Series [2] can be described thus: Maximum solubility of alkanediols in water (visual assessment). The series is classed as physicochemical. Particulars: assessed at ambient temperature after 24 h storage at 5° C.; visual observation.
Source text: The water solubility of a substance is the saturation mass concentration of the substance in water at a given temperature. The determination of the solubility in water relates to essentially pure substances which are stable in water and not volatile.
For the determination of the maximum water solubility of an alkanediol, water and different concentrations of the respective alkanediol were blended by stirring. […] The determination of whether the alkanediol has dissolved in water is based entirely on visual observation.
Series [3] has as its system microbial load of natural polymers. Put plainly: Microbial load of mixtures of natural polymers with alkanediols (plating, CFU count). The class given is cell-based, bacteria. On the procedure: The following tests were performed to show the influence of different alkanediols on the microbial load of natural polymers.
A selection of natural polymers as specified in Table 1 was systematically analyzed in combination with different 1,2-alkanediols and 2,3-alkanediols (0.5%). The polymers were chosen to be representative from different polymer classes:
A mixture of the natural polymer (concentration as recommended by supplier) with water and 1,2-alkanediol (0.5%) or 2,3-alkanediol (0.5%) or a mixture of 1,2-alkanediol and 2,3-alkanediol (0.5% final concentration) was prepared, as representative of a cold formulation preparation processes, and directly sampled for determination of microbial load. Additionally, the mixtures were stored at 40° C. and again sampled for microbial load after 2 days and 7 days.
The microbial load of the mixtures was determined by plating 1000 μl (or respective dilutions of the material) on an agar plate based on universal bacterial growth medium (Caseinpepton-Sojamehlpepton-Bouillon, Merck 1.05459+Agar No. 1, Oxoid LP0011). The plates were then incubated at 37° C. for 5 days and then photo documented. In parallel, bacterial colonies were counted (CFU—colony forming units per ml).

Setting [4] is: Covathick (2009, cellulose 0.5%) in water + 0.5% 1,2-alkanediol, 2 days storage at 40° C.
The mark [5] stands for this setting: Covathick (2009, cellulose 0.5%) in water + 0.5% 1,2-alkanediol, 7 days storage at 40° C.
The mark [6] stands for this setting: Covathick (2009, cellulose 0.5%) in water + 0.5% 1,2-alkanediol, fresh.
[7] abbreviates: Genuvisco (CG-131, carrageenan 0.5%) in water + 0.5% 1,2-alkanediol, 2 days storage at 40° C.
The mark [8] stands for this setting: Genuvisco (CG-131, carrageenan 0.5%) in water + 0.5% 1,2-alkanediol, 7 days storage at 40° C.
Setting [9] is: Genuvisco (CG-131, carrageenan 0.5%) in water + 0.5% 1,2-alkanediol, fresh.
[10] abbreviates: Nativacare (5600, corn starch 3%) in water + 0.5% 1,2-alkanediol, 2 days storage at 40° C.
[11] abbreviates: Nativacare (5600, corn starch 3%) in water + 0.5% 1,2-alkanediol, 7 days storage at 40° C.
[12] abbreviates: Nativacare (5600, corn starch 3%) in water + 0.5% 1,2-alkanediol, fresh.
The mark [13] stands for this setting: Polycos-N 75 (guar gum 0.5%) in water + 0.5% 1,2-alkanediol, 2 days storage at 40° C.
The mark [14] stands for this setting: Polycos-N 75 (guar gum 0.5%) in water + 0.5% 1,2-alkanediol, 7 days storage at 40° C.
[15] abbreviates: Polycos-N 75 (guar gum 0.5%) in water + 0.5% 1,2-alkanediol, fresh.
The mark [16] stands for this setting: Xanthan Gum (Rheocare XGN 0.5%) in water + 0.5% 1,2-alkanediol, 2 days storage at 40° C.
The mark [17] stands for this setting: Xanthan Gum (Rheocare XGN 0.5%) in water + 0.5% 1,2-alkanediol, fresh.

We go through eight molecules from patent US20230293404A1, “Compositions Comprising Natural Polymers and One or More (Bio)-Alkanediols” (Symrise AG, priority 2020, published 2023).

As for `CCCCCC(O)CO` (centres unmarked) [1,2-heptanediol], the Physical state result in series [1] was “liquid”. Besides, the “Maximum solubility in water” value in series [2] worked out at 2.5 % by weight. The “Bacterial load (colony forming units)” value was 0 CFU per ml in series [3] (setting [4]); 0 CFU per ml in series [3] (setting [5]); 4 CFU per ml in series [3] (setting [6]); 0 CFU per ml in series [3] (setting [7]); 0 CFU per ml in series [3] (setting [8]); 0 CFU per ml in series [3] (setting [9]). Moreover, the “Bacterial load (colony forming units)” value in series [3] (setting [10]) is listed as 0 CFU per ml; in series [3] (setting [11]), 0 CFU per ml; in series [3] (setting [12]), 0 CFU per ml; in series [3] (setting [13]), 0 CFU per ml; in series [3] (setting [14]) it was 0 CFU per ml; in series [3] (setting [15]) it was 5 CFU per ml. Moreover, the “Bacterial load (colony forming units)” value in series [3] (Table 4: Covathick (0.5%) in water + alkanediol or mixture, 0.5% total, 2 days storage at 40° C.) is 0 CFU per mL; in series [3] (Table 4: Covathick (0.5%) in water + alkanediol or mixture, 0.5% total, 7 days storage at 40° C.) it was 0 CFU per mL; in series [3] (Table 4: Covathick (0.5%) in water + alkanediol or mixture, 0.5% total, fresh), 4 CFU per mL; in series [3] (Table 4: PolyCos N-75 (0.5%) in water + alkanediol or mixture, 0.5% total, 2 days storage at 40° C.) it was 0 CFU per mL; in series [3] (Table 4: PolyCos N-75 (0.5%) in water + alkanediol or mixture, 0.5% total, 7 days storage at 40° C.), 0 CFU per mL; in series [3] (Table 4: PolyCos N-75 (0.5%) in water + alkanediol or mixture, 0.5% total, fresh), 5 CFU per mL. Also, the “Bacterial load (colony forming units)” value is on record as 2 CFU per mL in series [3] (Table 4: Xanthan Gum (0.5%) in water + alkanediol or mixture, 0.5% total, 2 days storage at 40° C.); 0 CFU per mL in series [3] (Table 4: Xanthan Gum (0.5%) in water + alkanediol or mixture, 0.5% total, 7 days storage at 40° C.); 0 CFU per mL in series [3] (Table 5: Covathick (0.5 %) in water + alkanediol or mixture, 0.5% total, 2 days storage at 40° C.); 0 CFU per mL in series [3] (Table 5: Covathick (0.5 %) in water + alkanediol or mixture, 0.5% total, 7 days storage at 40° C.); 4 CFU per mL in series [3] (Table 5: Covathick (0.5 %) in water + alkanediol or mixture, 0.5% total, fresh); 0 CFU per mL in series [3] (Table 5: PolyCos N-75 (0.5 %) in water + alkanediol or mixture, 0.5% total, 2 days storage at 40° C.). Also, the “Bacterial load (colony forming units)” value in series [3] (Table 5: PolyCos N-75 (0.5 %) in water + alkanediol or mixture, 0.5% total, 7 days storage at 40° C.) is on record as 0 CFU per mL; in series [3] (Table 5: PolyCos N-75 (0.5 %) in water + alkanediol or mixture, 0.5% total, fresh) it was 5 CFU per mL; in series [3] (Table 5: Xanthan Gum (0.5 %) in water + alkanediol or mixture, 0.5% total, 2 days storage at 40° C.), 2 CFU per mL; in series [3] (Table 5: Xanthan Gum (0.5 %) in water + alkanediol or mixture, 0.5% total, 7 days storage at 40° C.), 0 CFU per mL; in series [3] (setting [16]), 2 CFU per ml; in series [3] (Xanthan Gum (Rheocare XGN 0.5%) in water + 0.5% 1,2-alkanediol, 7 days storage at 40° C.) it was 0 CFU per ml. Further, the “Activity to stabilize natural polymer solutions for storage by removing their microbial load (in words)” value in series [3] (compared to 1,2-pentanediol and 1,2-hexanediol, Table 2) is reported as “superior activity”.
As for `CCCCC(O)CO` (centres unmarked) [1,2-hexanediol], in series [1], the Physical state entry was “liquid”. In series [2], the “Maximum solubility in water” value turned out to be 50 % by weight. Also, the “Bacterial load (colony forming units)” value in series [3] (setting [4]) was 0 CFU per ml; in series [3] (setting [5]) it was greater than 13 CFU per ml; in series [3] (setting [6]), 3 CFU per ml; in series [3] (setting [8]), 0 CFU per ml; in series [3] (setting [9]), 3 CFU per ml; in series [3] (setting [10]), 0 CFU per ml. Moreover, the “Bacterial load (colony forming units)” value amounted to 0 CFU per ml in series [3] (setting [11]); 1 CFU per ml in series [3] (setting [12]); 19 CFU per ml in series [3] (setting [13]); 2 CFU per ml in series [3] (setting [14]); 9 CFU per ml in series [3] (setting [15]); 1 CFU per ml in series [3] (setting [16]). In addition, the “Bacterial load (colony forming units)” value in series [3] (setting [17]) is given as 7 CFU per ml.
Consider `CCCCCCCC(O)CO` (centres unmarked) [1,2-nonanediol], for which, in series [1], the Physical state entry is recorded as “solid”. Besides, the “Maximum solubility in water” value in series [2] is on record as 0.1 % by weight.
Consider `CCCCCCC(O)CO` (centres unmarked) [1,2-octanediol], for which the Physical state entry in series [1] is “solid”. Besides, the “Maximum solubility in water” value in series [2] is on record as 0.5 % by weight.
For `CCCC(O)CO` (centres unmarked) [1,2-pentanediol], the Physical state entry in series [1] is given as “liquid”. Also, in series [2], the “Maximum solubility in water” value came to 50 % by weight. The “Bacterial load (colony forming units)” value in series [3] (setting [4]) is reported as greater than 13 CFU per ml; in series [3] (setting [5]) it was 4 CFU per ml; in series [3] (setting [6]), 84 CFU per ml; in series [3] (setting [7]), 2800 CFU per ml; in series [3] (setting [8]), 0 CFU per ml; in series [3] (setting [9]) it was 35 CFU per ml. The “Bacterial load (colony forming units)” value is 27 CFU per ml in series [3] (setting [10]); greater than 1000 CFU per ml in series [3] (setting [11]); 0 CFU per ml in series [3] (setting [12]); 13 CFU per ml in series [3] (setting [14]); 13 CFU per ml in series [3] (setting [15]); greater than 249 CFU per ml in series [3] (setting [17]).
With `CCCCCCCCCC(O)CO` (centres unmarked) [1,2-undecanediol], in series [1], the Physical state entry is “solid”.
As to `CCCCCCC(O)C(C)O` (centres unmarked) [2,3-nonanediol], in series [1], the Physical state entry is “liquid”. The “Maximum solubility in water” value in series [2] was 0.3 % by weight.
Regarding `CCCCCCCCC(O)C(C)O` (centres unmarked) [2,3-undecanediol], the Physical state entry in series [1] is “liquid”. The “Bacterial load (colony forming units)” value in series [3] (Covathick (0.5%) in water + 0.5% 2,3-alkanediol, 2 days storage at 40° C.) came out at 0 CFU per mL; in series [3] (Covathick (0.5%) in water + 0.5% 2,3-alkanediol, 7 days storage at 40° C.) it was 0 CFU per mL; in series [3] (Covathick (0.5%) in water + 0.5% 2,3-alkanediol, fresh), 0 CFU per mL; in series [3] (Genuvisco (0.5%) in water + 0.5% 2,3-alkanediol, 2 days storage at 40° C.), 0 CFU per mL; in series [3] (Genuvisco (0.5%) in water + 0.5% 2,3-alkanediol, 7 days storage at 40° C.), 0 CFU per mL; in series [3] (Genuvisco (0.5%) in water + 0.5% 2,3-alkanediol, fresh), 0 CFU per mL. Moreover, the “Bacterial load (colony forming units)” value is 0 CFU per mL in series [3] (Polycos-N 75 (0.5%) in water + 0.5% 2,3-alkanediol, 2 days storage at 40° C.); 0 CFU per mL in series [3] (Polycos-N 75 (0.5%) in water + 0.5% 2,3-alkanediol, 7 days storage at 40° C.); 0 CFU per mL in series [3] (Polycos-N 75 (0.5%) in water + 0.5% 2,3-alkanediol, fresh); 0 CFU per mL in series [3] (Xanthan Gum (0.5%) in water + 0.5% 2,3-alkanediol, 2 days storage at 40° C.); 0 CFU per mL in series [3] (Xanthan Gum (0.5%) in water + 0.5% 2,3-alkanediol, 7 days storage at 40° C.); 0 CFU per mL in series [3] (Xanthan Gum (0.5%) in water + 0.5% 2,3-alkanediol, fresh). In addition, the “Effect on the microbial load of the natural polymer solutions (in words)” value in series [3] (directly after preparation of the mixtures as well as after 7 days storage, Table 3) is “superior antimicrobial activity”.
